≈ marks a conversion by molar mass, not a printed value.
Assays:
[1] = tested on: Escherichia coli; test: Antibacterial activity against Escherichia coli ATCC 25922 after 24 hrs by twofold dilution method; type: functional; details: ATCC 25922, 24 h
[2] = tested on: Micrococcus luteus; test: Antibacterial activity against Micrococcus luteus IFC 12708 after 24 hrs by twofold dilution method; type: functional; details: IFC 12708, 24 h
[3] = tested on: Staphylococcus aureus; test: Antibacterial activity against Staphylococcus aureus ATCC 65389 after 24 hrs by twofold dilution method; type: functional; details: ATCC 65389, 24 h
[4] = tested on: Salmonella typhimurium; test: Antibacterial activity against Salmonella Typhimurium ATCC 14028 after 24 hrs by two-fold dilution method; type: functional, Salmonella enterica subsp. enterica serovar Typhimurium; details: Salmonella enterica, ATCC 14028, 24 h
[5] = biological target: Isocitrate lyase (Magnaporthe oryzae (strain 70-15 / FGSC 8958) (Rice blast fungus)(Pyricularia oryzae), UniProt P0CT06); test: Inhibition of Magnaporthe grisea isocitrate lyase; set-up: species or system Pyricularia grisea
[6] = tested on: Bacillus subtilis; test: Antibacterial activity against Bacillus subtilis ATCC 6633 after 24 hrs by twofold dilution method; type: functional; details: ATCC 6633, 24 h
[7] = tested on: Proteus vulgaris; test: Antibacterial activity against Proteus vulgaris ATCC 3851 after 24 hrs by twofold dilution method; type: functional; details: ATCC 3851, 24 h
[8] = tested on: K562; test: Cytotoxicity against human K562 cells after 48 hrs by SRB assay; type: functional; details: K562, 48 h, read-out: LC50 (the source's name)

Chain of Isocitrate lyase (P0CT06 whole entry): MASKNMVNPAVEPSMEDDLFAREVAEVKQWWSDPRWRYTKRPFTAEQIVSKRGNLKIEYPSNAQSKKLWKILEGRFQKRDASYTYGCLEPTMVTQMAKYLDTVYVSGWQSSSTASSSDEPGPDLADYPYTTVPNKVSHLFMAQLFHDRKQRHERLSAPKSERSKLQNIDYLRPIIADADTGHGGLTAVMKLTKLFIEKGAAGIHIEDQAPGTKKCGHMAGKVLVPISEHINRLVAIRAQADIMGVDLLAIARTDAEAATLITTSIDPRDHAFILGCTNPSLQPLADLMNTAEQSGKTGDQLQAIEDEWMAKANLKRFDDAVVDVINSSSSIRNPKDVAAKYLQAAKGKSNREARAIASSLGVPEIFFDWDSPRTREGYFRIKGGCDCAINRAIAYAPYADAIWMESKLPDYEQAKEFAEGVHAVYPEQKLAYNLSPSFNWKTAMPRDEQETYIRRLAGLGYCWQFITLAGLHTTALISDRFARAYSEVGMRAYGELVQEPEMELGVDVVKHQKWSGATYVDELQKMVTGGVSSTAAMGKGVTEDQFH

SMILES	MIC [1] [µg/mL]	MIC [2] [µg/mL]	MIC [3] [µg/mL]	MIC [4] [µg/mL]	IC50 [5] [µM]	MIC [6] [µg/mL]	MIC [7] [µg/mL]	CC50 [8] [µg/mL]
CC1=C(O)/C(=C/[C@H](C)CCC/C(C)=C/CC/C(C)=C/CCc2ccoc2)OC1=O	> 100	6.25 (≈ 15.7 µM)	12.5 (≈ 31.4 µM)	6.25 (≈ 15.7 µM)	67.7	6.25 (≈ 15.7 µM)	6.25 (≈ 15.7 µM)	43.7 (≈ 110 µM)
CC(=O)OC[C@]12CCCC(C)(C)[C@@H]1CC[C@]1(C)[C@@H]2CC[C@]2(C)c3cocc3CC[C@@H]12	> 100	25 (≈ 60.6 µM)	> 100	> 100	> 242	3.12 (≈ 7.56 µM)	> 100	2.3 (≈ 5.57 µM)
COC(=O)C1=CC[C@@H]2[C@](C)(CC[C@H]3[C@@]2(C)CC[C@H]2C(C)(C)CCC[C@@]23COC(C)=O)[C@@H]1C=O	> 100	> 100	> 100	> 100	> 218	> 100	> 100	3.7 (≈ 8.07 µM)
CC1=C(O)/C(=C/[C@H](C)CC/C=C(/C)CCC/C=C(/C)CCc2ccoc2)OC1=O	> 100	3.12 (≈ 7.83 µM)	6.25 (≈ 15.7 µM)	12.5 (≈ 31.4 µM)	78.3	6.25 (≈ 15.7 µM)	6.25 (≈ 15.7 µM)	7.3 (≈ 18.3 µM)
CC(=O)O[C@@H]1OC=C2[C@@H](OC(C)=O)C[C@@H]3[C@](C)(CC[C@H]4[C@@]3(C)CC[C@H]3C(C)(C)CCC[C@@]34C=O)[C@H]21	> 100	> 100	> 100	> 100	> 205	> 100	> 100	17.5 (≈ 36 µM)
CO[C@@H]1OCC2=CC[C@@H]3[C@](C)(CC[C@H]4[C@@]3(C)CC[C@H]3C(C)(C)CCC[C@@]34CO)[C@H]21	> 100	> 100	> 100	6.25 (≈ 15.5 µM)	104	50 (≈ 124 µM)	> 100	0.11 (≈ 0.273 µM)
CC1(C)CCC[C@@]2(CO)[C@H]1CC[C@]1(C)[C@@H]2CC[C@]2(C)c3cocc3CC[C@@H]12	> 100	6.25 (≈ 16.9 µM)	> 100	12.5 (≈ 33.7 µM)	123	1.56 (≈ 4.21 µM)	> 100	0.97 (≈ 2.62 µM)
O=C(O)CC[N+](=O)[O-]					50.8			
CC1(C)S[C@@H]2[C@H](NC(=O)[C@H](N)c3ccccc3)C(=O)N2[C@H]1C(=O)O [AMPICILLIN]	12.5 (≈ 35.8 µM)	1.56 (≈ 4.46 µM)	1.56 (≈ 4.46 µM)	3.12 (≈ 8.93 µM)		1.56 (≈ 4.46 µM)	3.12 (≈ 8.93 µM)	
C/C(=C\CC/C(C)=C/C[C@H](O)c1ccoc1)CC/C=C(\C)CC(=O)CC(C)C	> 100	> 100	> 100	> 100	> 259	6.25 (≈ 16.2 µM)	> 100	5.7 (≈ 14.7 µM)
CC(=O)OC[C@]12CCCC(C)(C)[C@@H]1CC[C@@]1(C)[C@@H]3C[C@H](OC(C)=O)C4=CO[C@@H](OC(C)=O)[C@@H]4[C@@]3(C)CC[C@@H]12	> 100	> 100	> 100	> 100	> 188	> 100	> 100	6.8 (≈ 12.8 µM)
CC(=O)O[C@@H]1OC=C2[C@H]1[C@@]1(C)CC[C@H]3[C@@](C)(CC[C@H]4C(C)(C)CCC[C@]34C)[C@@H]1C[C@@H]2O	> 100	> 100	> 100	12.5 (≈ 29 µM)	> 232	3.12 (≈ 7.25 µM)	> 100	5.8 (≈ 13.5 µM)
CC(=O)O[C@@H]1OC=C2[C@@H](OC(C)=O)C[C@@H]3[C@](C)(CC[C@H]4[C@@]3(C)CC[C@H]3C(C)(C)CCC[C@@]34CO)[C@H]21	> 100	100 (≈ 205 µM)	> 100	6.25 (≈ 12.8 µM)	> 205	0.78 (≈ 1.6 µM)	> 100	0.13 (≈ 0.266 µM)
COc1cccc2c1C(=O)c1c(O)c3c(c(O)c1C2=O)C[C@@](O)(C(=O)CO)C[C@@H]3O[C@H]1C[C@H](N)[C@H](O)[C@H](C)O1 [DOXORUBICIN]								4.9 (≈ 9.02 µM)
COC(=O)C1=CC[C@@H]2[C@](C)(CC[C@H]3[C@@]2(C)CC[C@H]2C(C)(C)CCC[C@@]23COC(C)=O)[C@H]1C=O	> 100	12.5 (≈ 27.3 µM)	25 (≈ 54.5 µM)	12.5 (≈ 27.3 µM)	120	0.78 (≈ 1.7 µM)	6.25 (≈ 13.6 µM)	8.6 (≈ 18.8 µM)
CC(=O)OC[C@]12CCCC(C)(C)[C@@H]1CC[C@@]1(C)[C@@H]3CC=C(C(=O)O)[C@@H](C=O)[C@@]3(C)CC[C@@H]12	> 100	> 100	> 100	> 100	> 225	> 100	100 (≈ 225 µM)	4.2 (≈ 9.45 µM)
CC(=O)O[C@@H]1OC(=O)C2=CC[C@@H]3[C@](C)(CC[C@H]4[C@@]3(C)CC[C@H]3C(C)(C)CCC[C@@]34CO)[C@H]21	> 100	3.12 (≈ 7.02 µM)	> 100	6.25 (≈ 14.1 µM)	> 225	1.56 (≈ 3.51 µM)	> 100	22.5 (≈ 50.6 µM)

— ChEMBL document CHEMBL1154134, “Scalarane sesterterpenes from the sponge Smenospongia sp” (J Nat Prod, 2008)
